Measurements as given in US7115666B2, “Nitrone compounds, pharmaceutical compositions containing the same and methods for treating inflammation and neuropathic pain” (Renovis, Inc., priority 2002, dated 2006).
Entries after “also recorded” stand apart in the source; their conditions may differ.

Legend:
[1] = test system: spinal nerve ligation model (Chung model); experiment: Spinal nerve ligation (Chung) model, mechanical allodynia; assay type: in vivo, rats; details: 25 mg/kg single dosing via i.p.; von Frey filaments
Method: Compound 14 and Compound 23 were prepared for i.p. administration as follows. 250 mg/ml of each of the compounds to be tested, was dissolved in a mixture of Cremophor EL/alcohol (90:10) (volume:volume), respectively, by brief sonication on ice, followed by further 10-fold dilution in saline solution (9% Cremophor EL; 1% ETOH and 90% saline) to give a final concentration of 25 mg/ml. before injection. 1 ml/kg (body weight) of compound solution was administered via i.p. to rats, to yield a dose of 25 mg/kg. 180–200 grams of body weight, male, Sprague-Dawley rats from Harlan were used. They were housed under the standard housing conditions and trained for 1 week before measurement of the baseline. The rats were prepared in the manner described in Example V, above, by i.p. admininstration of Taxol. The spinal nerve ligation surgery was performed as described by Kim & Chung (Kim, S. O., and Chung, J. M., An experimental model for peripheral neuropathy produced by segmental spinal nerve ligation in rat. Pain. 1992; 50:355–363.). The development of neuropathic pain was measured using 50% of threshold measurement using von Frey filaments. […] Generally speaking, the mechanical allodynia in spinal nerve ligation model rats fell in the range of 1–4 grams of the paw withdrawal threshold. The results of the tests are set forth in FIG. 8 and are summarized in the last two rows of Table III.

[2] = test system: Taxol-induced neuropathic pain model in mice; experiment: Taxol-induced neuropathic pain model, mechanical allodynia (von Frey filament); assay type: in vivo
Excerpt: Taxol is a chemotherapeutic reagent for treatment of cancer patients. Cancer patients under Taxol chemotherapy can develop neuropathic pain, with a symptom of severe mechanical allodynia, so that a light touch (non-noxious stimulus in a normal condition) becomes painful. […] Recent studies have shown that Taxol is involved in TNF-alpha release in microglia cells. As one of the clinically relevant models, Taxol-induced neuropathic pain was developed in mice and rats. It is believed that small-diameter high threshold nociceptive C-fibers in the peripheral sensory nervous systems are largely, if not exclusively, affected in the Taxol-induced neuropathic pain models.
In this series of experiments, five-week old, male C57B1/6 mice were purchased from Charles River and housed at the Renovis animal facility in South San Francisco. Mice were trained for one week in an enclosure made of Plexiglas with dimensions of 2 in×2.5 in×3.5 in (W, H, and L) with a meshed metal support. The baseline of response to mechanical stimulus was measured using a von Frey Filament (0.6 g=3.84 mN). Normally, the baseline response is between 0 to 40%.
Taxol was dissolved (1 mg/ml) in 50% Cremophor EL and 50% alcohol, and freshly diluted with saline to the final concentration of 0.2 mg/ml in 10% Cremophor EL, 10% alcohol. Mice were administered Taxol at 1 mg/kg of body weight, via i.p. daily, while the animals of the control group received vehicle (10% Cremophor EL and 10% alcohol in saline).
Animals receiving this daily dose of Taxol will develop neuropathic pain. The mechanical allodynia was measured at day 7, 8, or 14 after Taxol administration.
A quantity of 200 mg of compound 14 (Example 14) was dissolved in 0.4 ml of 100% DMSO to yield a concentration of 500 mg/ml, and was kept at 4° C. until use. Methylcellulose was dissolved in deionized-distilled water to yield a concentration of 1%. The freshly prepared meythlcellulose was used to make a suspension of the compound, 10 mg of compound in 2.5% DMSO (V/V) and 1% methylcellulose. The suspension was sonicated for 6 min with a 5 second interval every 30 seconds before administration to animals.
A quantity of 50 mg/kg (body weight) compound or vehicle (2.5% DMSO and 1% methylcellulose), 100 μl/20 g (body weight) was given to animals via gavage feeding procedure in a randomized, blinded fashion. The animals were then placed in the enclosure for assay. Mechanical allodynia was measured with von Frey filament (0.6 g=[…]) at various times after administration.
Referring to FIG. 5, baseline in the group of animals was measured as 25+/−4% (n=24, ±SEM) before induction of neuropathic pain with Taxol (or sham treatment), where the response was measured with a von Frey filament (0.6 g=3.84 mN) as the percent of trials a withdrawal response is observed after probing with the filament. The higher the percentage, the greater the inferred pain.
Sixteen animals were treated with Taxol daily to induce neuropathic pain. Mechanical allodynia was assayed at day 8; average withdrawal response was measured as 81±5% (n=16, ±SEM). Sixteen animals were treated with matching vehicle to create sham animals. The Taxol and sham animals were then separated randomly into two groups of 8 animals each for drug vs. vehicle testing. Withdrawal responses to a von Frey filament probe were measured at 1, 6, 24, and 72 hours post-administration of drug or vehicle control, and averaged for each animal. […] Negative values reflect a reduction in inferred pain.
For mouse neuropathic pain studies, C57B1/6 strain, five-weeks old male mice were obtained from Charles River, San Diego, Calif. A total of 120 mice were used for the studies. 4 mice per cage were housed under standard conditions with 12-hour light and 12-hour dark cycles (in Renovis, Inc, South San Francisco facility). For rat neuropathic pain studies, male Sprague-Dawley rats, with body weights ranging from 180–200 grams, were obtained from Harlan. A total of 42 rats were used for this study. […]

[3] = Taxol/mice, P.O., Single dosing, 50 Mg/Kg body weight

| Compound | effect on mechanical allodynia (paw withdrawal threshold) [1] | time postdosing of analgesic effect ([2]; 50 mg/kg single dose via oral gavage) | effect on mechanical allodynia (Taxol-induced pain) ([2]; 50 mg/kg single dose via oral gavage, von Frey filament 0.6 g, measured 1, 6, 24, up to 48 or 72 hours postdosing) | Effective time Hour post dosing [2, 3] | extent of block of mechanical allodynia [2, 3] |
| --- | --- | --- | --- | --- | --- |
| COc1ccc(CCCC=[N+]([O-])C(C)(C)C)cc1 [Compound 23] | significant analgesic effects over control; also recorded: attenuate mechanical allodynia | – | – | – | – |
| N-tert-butyl-C-(4-phenylpropyl)nitrone [Compound 14] | significant analgesic effects over control; also recorded: attenuate mechanical allodynia | up to 24 hour | inhibits mechanical allodynia; also recorded: significant reduction of mechanical allodynia; also recorded: activity preventing Taxol-induced pain | ~24 h | block |
